The subject of data set [1] is Staphylococcus aureus. Description: Antimicrobial activity against methicillin-susceptible Staphylococcus aureus ATCC29213 measured after 24 hrs by CLSI protocol based microdilution method. The data set is classed as functional. (In general: Dilution methods test growth across graded concentrations, often in twofold steps.)
The subject of data set [2] is Acinetobacter baumannii. Description: Antimicrobial activity against Acinetobacter baumannii ATCC19606 measured after 24 hrs by CLSI protocol based microdilution method. The data set is classed as functional.
Data set [3] in a line: Selectivity index, ratio of HC50 for sheep erythrocytes to MIC for Staphylococcus aureus. The data set is classed as toxicity. The conditions noted are these: read-out: Selectivity Index.
Data set [4] relates to Candida albicans. Nature of the data set: Antimicrobial activity against Candida albicans SC5314 measured after 48 hrs by CLSI protocol based microdilution method. The data set is classed as functional.
A short description of data set [5]: Inhibition of N-terminal his 6 tagged Acinetobacter baumannii Fabi (1 to 804 residues) expressed in Escherichia coli BL21 incubated for 30 mins in presence of NADH by fluorescence based microplate reader analysis.
Data set [6] in a line: Cytotoxicity against HEK293 cells assessed as survival rate at 400 uM measured after 48 hrs by CCK-8 method relative to control. The data set is classed as toxicity, cell-based. The conditions noted are these: human, read-out: Survival. In general terms: Tetrazolium dyes change colour on reduction, which living cells bring about.
Data set [7] is described as follows: Hemolytic activity in sheep erythrocytes assessed as hemolysis at 64 ug/ml incubated for 1 hr by microplate reader based analysis relative to control. As to conditions: at 64 µg/mL, read-out: Activity. The data set is classed as toxicity, cell-based, Ovis aries, Erythrocyte.
For data set [8], the target named is T1, Enoyl-[acyl-carrier-protein] reductase [NADPH] FabI (Staphylococcus aureus) (UniProt Q6GI75).
T1 sequence (whole entry): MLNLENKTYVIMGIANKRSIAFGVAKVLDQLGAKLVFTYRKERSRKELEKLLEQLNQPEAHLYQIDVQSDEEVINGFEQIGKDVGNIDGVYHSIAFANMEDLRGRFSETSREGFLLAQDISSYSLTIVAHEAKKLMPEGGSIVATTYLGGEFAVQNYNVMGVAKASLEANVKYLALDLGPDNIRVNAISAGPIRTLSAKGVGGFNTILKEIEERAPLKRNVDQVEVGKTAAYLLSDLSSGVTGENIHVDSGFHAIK
Nature of the data set: Inhibition of N-terminal his 6 tagged Staphylococcus aureus Fabi (1 to […] residues) expressed in Escherichia coli BL21 at 10 uM incubated for 30 mins in presence of NADPH by fluorescence based microplate reader analysis relative to control.

Data set [9] relates to Staphylococcus aureus. Description: Antimicrobial activity against Staphylococcus aureus measured after 24 hrs by CLSI protocol based microdilution method. The data set is classed as functional.
The test system of data set [10] is HepG2. Nature of the data set: Cytotoxicity against human HepG2 cells assessed as survival rate at 400 uM measured after 48 hrs by CCK-8 method relative to control. As to conditions: read-out: Survival. The data set is classed as functional.
For data set [11], the target named is T2, Enoyl-[acyl-carrier-protein] reductase [NADPH] FabI (Staphylococcus aureus, UniProt Q6GI75).
T2 sequence (Q6GI75 whole entry): T1 sequence (whole entry)
Nature of the data set: Inhibition of N-terminal his 6 tagged Staphylococcus aureus Fabi (1 to […] residues) expressed in Escherichia coli BL21 incubated for 30 mins in presence of NADPH by fluorescence based microplate reader analysis.

The subject of data set [12] is Enterococcus faecalis. Description: Antimicrobial activity against Enterococcus faecalis ATCC29212 measured after 24 hrs by CLSI protocol based microdilution method. The data set is classed as functional.
Data set [13] can be described thus: Cytotoxicity against HEK293 cells assessed as survival rate at 800 uM measured after 48 hrs by CCK-8 method relative to control. The data set is classed as toxicity, cell-based. The conditions noted are these: human, read-out: Survival.
Data set [14] concerns Escherichia coli. Description: Antimicrobial activity against Escherichia coli ATCC25922 measured after 24 hrs by CLSI protocol based microdilution method. The data set is classed as functional.
Data set [15] relates to Pseudomonas aeruginosa. Description: Antimicrobial activity against Pseudomonas aeruginosa PAO1 measured after 24 hrs by CLSI protocol based microdilution method. The data set is classed as functional.
For data set [16], the system named is HepG2. Nature of the data set: Cytotoxicity against human HepG2 cells assessed as survival rate at 800 uM measured after 48 hrs by CCK-8 method relative to control. The data set is classed as functional. As to conditions: read-out: Survival.
Data set [17] has as its system Staphylococcus aureus. Description: Antimicrobial activity against […] Staphylococcus aureus NRS271 measured after 24 hrs by CLSI protocol based microdilution method. The data set is classed as functional.
Data set [18] relates to Staphylococcus aureus. Description: Antimicrobial activity against […] Staphylococcus aureus ATCC33591 measured after 24 hrs by CLSI protocol based microdilution method. The data set is classed as functional.
In data set [19] the test system is Staphylococcus aureus. Description: Antimicrobial activity against […] Staphylococcus aureus USA300 measured after 24 hrs by CLSI protocol based microdilution method. The data set is classed as functional.
Data set [20] is described as follows: Hemolytic activity in sheep erythrocytes assessed as hemolysis at 128 ug/ml incubated for 1 hr by microplate reader based analysis relative to control. The data set is classed as toxicity, cell-based, Ovis aries, Erythrocyte. As to conditions: at 128 µg/mL, read-out: Activity.
For data set [21], the system named is Staphylococcus aureus. Nature of the data set: Antimicrobial activity against methicillin-susceptible Staphylococcus aureus ATCC25923 measured after 24 hrs by CLSI protocol based microdilution method. The data set is classed as functional.
Data set [22] in a line: Inhibition of N-terminal his 6 tagged Escherichia coli Fabi (1 to 789 residues) expressed in Escherichia coli BL21 incubated for 30 mins in presence of NADH by fluorescence based microplate reader analysis.
The test system of data set [23] is Enterococcus faecium. Description: Antimicrobial activity against Enterococcus faecium ATCC19434 measured after 24 hrs by CLSI protocol based microdilution method. The data set is classed as functional.
A short description of data set [24]: Hemolytic activity in sheep erythrocytes assessed as hemolysis incubated for 1 hr by microplate reader based analysis. The data set is classed as toxicity, cell-based, Ovis aries, Erythrocyte.
The nature of data set [25]: Hemolytic activity in sheep erythrocytes assessed as hemolysis at 256 ug/ml incubated for 1 hr by microplate reader based analysis relative to control. The data set is classed as toxicity, cell-based, Ovis aries, Erythrocyte. As to conditions: at 256 µg/mL, read-out: Activity.
In data set [26] the target is T1, Enoyl-[acyl-carrier-protein] reductase [NADPH] FabI (Staphylococcus aureus). Nature of the data set: Inhibition of N-terminal his 6 tagged Staphylococcus aureus Fabi (1 to […] residues) expressed in Escherichia coli BL21 at 1 uM incubated for 30 mins in presence of NADPH by fluorescence based microplate reader analysis relative to control.
The subject of data set [27] is Staphylococcus aureus. Description: Antimicrobial activity against […] Staphylococcus aureus ATCC43300 measured after 24 hrs by CLSI protocol based microdilution method. The data set is classed as functional.
Data set [28] deals with Staphylococcus aureus. Nature of the data set: Antimicrobial activity against […] Staphylococcus aureus ATCC33591 assessed as reduction in RNA content measured after 4 hrs by microplate reader based analysis. The data set is classed as functional.
In data set [29] the test system is Staphylococcus aureus. Nature of the data set: Antimicrobial activity against […] Staphylococcus aureus ATCC33591 assessed as reduction in DNA content measured after 4 hrs by microplate reader based analysis. The data set is classed as functional.
The target of data set [30] is T1, Enoyl-[acyl-carrier-protein] reductase [NADPH] FabI (Staphylococcus aureus). Description: Inhibition of N-terminal his 6 tagged Staphylococcus aureus Fabi (1 to […] residues) expressed in Escherichia coli BL21 at 2.5 uM incubated for 30 mins in presence of NADPH by fluorescence based microplate reader analysis relative to control.

Converted amounts (≈) assume the structure as drawn.

Results on four compounds are retold here after ChEMBL document CHEMBL5500393, “Discovery and Optimization of Novel SaFabI Inhibitors as Specific Therapeutic Agents for MRSA Infection” (J Med Chem, 2024).

Turning to `Cn1c(C2CC(=O)N(c3cccc(Br)c3Cl)C2)nc2ccccc21` (stereo not given), the minimum inhibitory concentration (MIC) (in general, the smallest concentration in the dilution series that meets the test's criterion for growth inhibition) was 2 µg/mL (≈ 4.94 µM) in data set [1]; over 32 µg/mL in [2]; over 32 µg/mL in data set [4]; 1 µg/mL (≈ 2.47 µM) in data set [9]; over 32 µg/mL in data set [12]; over 32 µg/mL in data set [14]. The MIC was over 32 µg/mL in data set [15]; 4 µg/mL (≈ 9.88 µM) in [17]; 2 µg/mL (≈ 4.94 µM) in data set [18]; 1 µg/mL (≈ 2.47 µM) in data set [19]; 1 µg/mL (≈ 2.47 µM) in data set [21]; over 32 µg/mL in [23]. This compound displayed an MIC in data set [27] of 2 µg/mL (≈ 4.94 µM). Also, the selectivity ratio in [3] is over 64. For the same compound, the IC50 (commonly the midpoint of a concentration-inhibition curve) came to 0.266 µM in data set [5], 0.331 µM in [11] and 0.0359 µM in [22]. In addition, the viability at 48 h, 400 µM in [6] is over 70%. For the same compound, in data set [7], the hemolysis at 1 h, 64 ug/ml was 2.8%. Besides, the inhibition (in general, the share of the control response that was lost under treatment) in data set [8] turned out to be 97.4%; in data set [26] it was 80.3%. Moreover, the viability at 400 µM in data set [10] was over 70%. Further, in data set [13], the viability at 48 h, 800 µM is over 75%. The viability at 800 µM in [16] was over 75%. Besides, in [20], the hemolysis at 1 h, 128 ug/ml was determined as 4.7%. In addition, in data set [24], the HC50 (in general, the concentration giving 50% haemolysis) at 1 h was over 256 µg/mL. Also, the hemolysis at 1 h, 256 ug/ml in data set [25] was 10.6%.
Take `CO[C@H]1/C=C/O[C@@]2(C)Oc3c(C)c(O)c4c(O)c(c(/C=N/N5CCN(C)CC5)c(O)c4c3C2=O)NC(=O)/C(C)=C\C=C\[C@H](C)[C@H](O)[C@@H](C)[C@@H](O)[C@@H](C)[C@H](OC(C)=O)[C@@H]1C` [RIFAMPIN]: the minimum inhibitory concentration (MIC) in [28] was 0.016 µg/mL (≈ 0.0194 µM).
On to `C[C@H]1COc2c(N3CCN(C)CC3)c(F)cc3c(=O)c(C(=O)O)cn1c23` [LEVOFLOXACIN ANHYDROUS], for which the MIC in [29] was 1 µg/mL (≈ 2.77 µM).
`Cc1cccc(N2CC(c3nc4ccccc4n3C)CC2=O)c1C` (stereo not given): the MIC in [1] was 8 µg/mL (≈ 25 µM); in [2], over 32 µg/mL; in data set [4], over 32 µg/mL; in [12] it was over 32 µg/mL; in data set [14], over 32 µg/mL; in [15] it was over 32 µg/mL. Also, the MIC is 16 µg/mL (≈ 50.1 µM) in data set [17]; 8 µg/mL (≈ 25 µM) in [18]; 16 µg/mL (≈ 50.1 µM) in data set [19]; 8 µg/mL (≈ 25 µM) in data set [21]; over 32 µg/mL in data set [23]; 16 µg/mL (≈ 50.1 µM) in data set [27]. For the same compound, the figures for the inhibition in [8], in data set [30] and in data set [26] were 95.7%, 76.8% and 53.1%, respectively. Also, the concentration for half-maximal inhibition (IC50) in data set [11] is 0.977 µM.
